We go through four compounds from patent publication US3966793A (priority 1964, dated 1976).

A value given as a limit tells only on which side of the number the result lay.

As a reminder, the LD50 is the dose at which mortality reaches 50%. Higher therefore signals lower toxicity.

For data set [1], the system named is mice. Kind of data set: Traction test (mice), myorelaxant activity. Type of data set: in vivo. The following applies: for ED50: Mus musculus, po, read-out: Traction, 50% effective dose. From the text:
This consists in observing when the treated animals are capable of retrieving a rod grasped by the front paws only. Inability to carry this out was interpreted as a sign of myorelaxant activity.

Data set [2] relates to mice. Kind of data set: Balance test: rotating rod (mice) (Equilibration). Type of data set: in vivo. The conditions noted are these: for ED50: Mus musculus, po, read-out: Equilibration, 50% effective dose. From the text: 2. Balance test: rotating rod (mice)
This test consists in observing whether the treated animals are capable of maintaining their balance on a horizontal rod kept in rotation.
Numerous neuroleptic compounds or tranquilizers disturb the equilibration reflex.

The test system of data set [3] is mice. Kind of data set: Anti-convulsant activity (anti-pentetrazole) (mice). Type of data set: in vivo. The conditions noted are these: mouse, PO; pentetrazole 125 mg./kg. IP; read-out: Anti-pentetrazole, 50% effective dose. The method, then:
3. Anti-convulsant activity (anti-pentetrazole) (mice)
Pentetrazole, injected intraperitoneally in a dose of 125 mg./kg. produces fatal convulsions in 100% of the animals.
Certain compounds exert a protective action preventing convulsions and permitting survival.

Data set [4] relates to mice. As to the kind of experiment: Anti-convulsant activity (electric shock) (mice). The conditions noted are these: for ED50: Mus musculus, po, read-out: Electric shock, 50% effective dose. The format is in vivo. From the text: 4. Anti-convulsant activity (electric shock) (mice)
The test consists in determining the intensity of the electric current required to produce a fatal shock in a batch of test animals.
Certain preventively administered compounds effectively protect a certain percentage of animals subjected to an electric current of an intensity which is fatal to untreated animals.

Data set [5] concerns mice. Kind of data set: Exploration test (mice). Type of data set: in vivo. The following applies: for ED50: Mus musculus, po, read-out: Exploration, 50% effective dose. The method, then: 5. Exploration test (mice)
This extremely simple test consists in placing a mouse at the center of a floor pierced with holes and in noting how many holes the mouse explores in 5 minutes. This test is carried out in a room in which complete silence is observed and which contains no person except the experimenter who is seated and still. It appeals to the curiosity of the animals. The doses of the compounds employed are, however, very small and considerably less than those required to impair movement. This simple test makes it possible to observe whether the compounds assayed produce a more or less pronounced lack of interest in the environment and it gives information which is interesting from the clinical point of view with regard to the treatment of anxiety and restlessness.

For data set [6], the system named is rat. As to the kind of experiment: Spontaneous motor activity in the rat. The format is in vivo. The conditions noted are these: for ED50: Rattus norvegicus, po, read-out: Spontaneous motor activity, 50% effective dose. The text has this:
(§1) 6. Spontaneous motor activity in the rat and mouse and provoked motor activity
(§2) The effect of drugs on voluntary movements of animals can be studied statistically by methods, the details of which will not be discussed here. The mouse, which is an extremely lively animal and moves about a great deal, is particularly suitable for this type of experiment.

For data set [7], the system named is mouse. Kind of data set: Spontaneous motor activity in the mouse. Type of data set: in vivo. The conditions noted are these: for ED50: Mus musculus, po, read-out: Spontaneous motor activity, 50% effective dose.
Excerpt: as §1, §2

Data set [8] concerns rat. Kind of data set: Benzedrine provoked motor activity (R). The format is in vivo. The conditions noted are these: PO, read-out: Benzedrine provoked motor activity, 50% effective dose.
Excerpt: as §1, §2
(§3) Moreover, this spontaneous mobility can be exacerbated by preventive administration to the animals of certain substances such as benzedrine, mescaline and ritaline.
(§4) The experimental results obtained by these methods give valuable information for clinical purposes with regard to the treatment of ambulatory psychomotor crises.

The subject of data set [9] is mouse. As to the kind of experiment: Benzedrine provoked motor activity (M). Type of data set: in vivo. The following applies: PO, read-out: Benzedrine provoked motor activity, 50% effective dose.
Excerpt: as §1, §2, §3, §4

A further data set has as its system male rat. As to the kind of experiment: Combativeness (rat). The conditions noted are these: for ED50: rat, PO, read-out: Combativeness, 50% effective dose. Type of data set: in vivo. From the text:
It is possible to make a male rat aggressive towards another male rat enclosed in the same cage by passing an electric current of more or less high voltage through the floor of the cage.
This test, like the preceding one, can obviously give information of clinical value for the treatment of aggression diseases.

For the next data set, the system named is rats. Kind of data set: Double box conditioning test (R). Type of data set: in vivo. The following applies: rat. The text has this:
The test used consists in educating rats to avoid an electric current passed through the floor of a cage of two compartments when they change compartments. The animal is first warned by a lamp which lights up in the compartment through which the current is passing while the other is in relative darkness.
This test, which requires more or less daily training at the rate of 50 times for each rat, makes it possible to follow the animals and note their progress. The performances realized at the end of a certain time (3 weeks to 1 month of training) are fairly constant, the percentage of errors made by adequately gifted subjects being less than 10 and very often even zero.
One would imagine that disturbances produced in these performances which call upon the memory of animals would be of great importance for the choice of a new medicament. A deconditioning drug of sufficient intensity could have the result of partly depriving the patient of the idea of danger and would consequently require special surveillance of the sick persons.

The next data set in a line: Acute toxicity (M) LD 50. The conditions noted are these: in vivo, mouse.
Data set [10] deals with mouse. As to the kind of experiment: Mescaline provoked motor activity (M). The conditions noted are these: PO, read-out: Mescaline provoked motor activity, 50% effective dose. Type of data set: in vivo.
Excerpt: as §1, §2, §3, §4

Data set [11] relates to mouse. As to the kind of experiment: Ritaline provoked motor activity (M). The format is in vivo. The following applies: PO, read-out: Ritaline provoked motor activity, 50% effective dose.
Excerpt: as §1, §2, §3, §4

For data set [12], the system named is mouse. As to the kind of experiment: Antistrychnine activity. Type of data set: in vivo. The conditions noted are these: po, read-out: Anti-strychnine, 50% effective dose. From the text:
7. Antistrychnine activity

In data set [13] the test system is mouse. Kind of data set: Morphine excitation (M). Type of data set: in vivo. The conditions noted are these: PO, read-out: Morphine excitation, 50% effective dose. The text has this:
In the mouse, the action of morphine is different but also manifested by marked central excitation.

Another data set has as its system cat. As to the kind of experiment: Morphine crisis (C). Type of data set: in vivo. The following applies: Felis catus, SC, read-out: Morphine crisis, 50% effective dose. From the text: In the cat, morphine produces a specific state of excitation with hallucinations which can be attenuated or suppressed by certain psycholeptic drugs.
For another data set, the system named is cats. Kind of data set: Aggressiveness (cat/mouse). The format is in vivo. The following applies: Felis catus, SC, read-out: Aggressiveness, 50% effective dose. The text has this:
9. Aggressiveness (cat/mouse)
In general, 75 to 80% of cats are aggressive when confronted with white mice. Psycholeptics and tranquilizers may make the cat indifferent and sometimes even amiable to the mouse. Similarly, in the case of cats that are furious and aggressive in relation to humans, diminution or suppression of the instinctive fear and establishment of a climate of confidence are observed.

Data set [14] can be described thus: Reaction (pH) of aqueous solution. Type of data set: physicochemical.
The test system of the next data set is central nervous system. Kind of data set: Pharmacodynamic / central nervous system tests taken together. Type of data set: in vivo. The text has this: A certain number of the compounds described in the present application have been studied with regard to their action on the central nervous system, as psycholeptics, myorrelaxants and tranquilizers. In addition, the acute toxicity has been determined for a number of these compounds.
It has thereby been possible to make quantitative comparisons of the activity of the different compounds for the different tests employed.

The subject of data set [15] is mouse. As to the kind of experiment: Potentiation of narcosis (M). Type of data set: in vivo. The following applies: PO, read-out: Narcotic potentiation, 50% effective dose. The text has this:
12. Potentiation of narcosis
Most psycholeptics are hypnotics in large doses, but many of them can, in small doses, without themselves producing any hypnosis, either prolong the time of sleep obtained with a true hypnotic (for example a barbiturate) or appreciably lower the dose of barbiturate required to obtain sleep.

Take `O=C1CN=C(c2ccccc2)c2cc(Cl)ccc2N1` [Nor-diazepame, 7-Chloro-5-phenyl-2-oxo-2,3-dihydro-1H-benzo[f]-1,4-diazepine, reference compound]: the ED50 in the data set with mice [1] was determined as 3.5 mg/kg; with mice [2], 8.6 mg/kg; in the data set with mice [3], 2.9 mg/kg; with mice [4] it was 9 mg/kg; with mice [5], 7.8 mg/kg; in the data set on rat [6], 50 mg/kg. In addition, the ED50 in the data set with mouse [7] is 50 mg/kg; in the data set on rat [8], 100 mg/kg; in the data set with mouse [9], over 20 mg/kg; with male rat, 100 mg/kg. For the same compound, the “Double box conditioning, effect in words” value in the data set on rats is “Without effect”.
Turning to `O=C(O)C1N=C(c2ccccc2)c2cc([N+](=O)[O-])ccc2NC1=O.[K+].[K+].[OH-].[OH-]` (stereo not shown) [4335 CB, 7-Nitro-2,3-dihydro-2-oxo-5-phenyl-1H-benzo[f]-1,4-diazepine-3-carboxylic acid, monopotassium salt, monopotassium hydroxide], in the data set “Acute toxicity (M) LD 50” (PO), the 50% lethal dose (LD50) was 560 mg/kg. Besides, the ED50 in the data set with mice [1] turned out to be 1.25 mg/kg; in the data set on mice [2], 4.3 mg/kg; in the data set with mice [3], 0.44 mg/kg; in the data set on mice [4], 3.2 mg/kg; in the data set on mice [5] it was 1.8 mg/kg; in the data set with rat [6], 25 mg/kg. Further, the ED50 was 5 mg/kg with mouse [7]; 100 mg/kg in the data set with rat [8]; 20 mg/kg in the data set on mouse [10]; over 20 mg/kg in the data set on mouse [11]; over 20 mg/kg with mouse [12]; 50 mg/kg in the data set on mouse [13]. Also, the ED50 was found to be 25 mg/kg in the data set on cat, 25 mg/kg in the data set with cats and 10 mg/kg in the data set with male rat. Besides, in the data set on male rat (test for combativeness), the “Effect in diminishing aggressiveness” value is “marked effect in diminishing aggressiveness”. Besides, the “Reaction / pH of aqueous solution” value in data set [14] was “strongly alkaline in reaction”. Also, in the data set on central nervous system (different tests of Table VI), the “Activity in different tests, especially as myorelaxants and anticonvulsants” value is “extremely active in different tests”. Further, the “Effect on the faculties of displacement” value in the data set on central nervous system (in vivo) is “less effect on the faculties of displacement”. The Solubility in water result in the data set “Solubility” is “dissolves completely in water”.
As for `CN1C(=O)CN=C(c2ccccc2)c2cc(Cl)ccc21` [Diazepame, 7-Chloro-1-methyl-5-phenyl-2-oxo-2,3-dihydro-1H-benzo[f]-1,4-diazepine, reference compound], the ED50 turned out to be 1.6 mg/kg in the data set with mice [1]; 4.4 mg/kg in the data set on mice [2]; 1.7 mg/kg in the data set with mice [3]; 5 mg/kg with mice [4]; 6 mg/kg in the data set on mice [5]; 25 mg/kg in the data set with rat [6]. For the same compound, the ED50 in the data set on mouse [7] is 5 mg/kg; in the data set on rat [8], 100 mg/kg; in the data set with mouse [9], over 20 mg/kg; with mouse [12], over 50 mg/kg; in the data set on mouse [13], 25 mg/kg; in the data set with cat, 25 mg/kg. For the same compound, the ED50 in the data set on cats was determined as 25 mg/kg; with male rat, 25 mg/kg; in the data set on mouse [15], 2.5 mg/kg.
For the compound `O=C(O)C1N=C(c2ccccc2)c2cc(Cl)ccc2NC1=O.[K+].[K+].[OH-].[OH-]` (stereo not shown) [4306 CB, 7-Chloro-2,3-dihydro-2-oxo-5-phenyl-1H-benzo[f]-1,4-diazepine-3-carboxylic acid, monopotassium salt, monopotassium hydroxide], the LD50 came out at 250 mg/kg in the data set “Acute toxicity (M) LD 50” (IP) and 700 mg/kg in the data set “Acute toxicity (M) LD 50” (PO). In addition, the ED50 is 1.1 mg/kg with mice [1]; 14 mg/kg in the data set with mice [2]; 1.7 mg/kg with mice [3]; 4.6 mg/kg in the data set on mice [4]; 4 mg/kg in the data set on mice [5]; under 25 mg/kg in the data set with rat [6]. Further, the ED50 in the data set with mouse [7] was 5 mg/kg; with rat [8] it was over 100 mg/kg; in the data set with mouse [9], over 20 mg/kg; in the data set with mouse [10], 20 mg/kg; in the data set on mouse [11], 20 mg/kg; in the data set on mouse [12], 25 mg/kg. In addition, the ED50 with mouse [13] was 50 mg/kg; in the data set on cat, 25 mg/kg; in the data set with cats it was 25 mg/kg; in the data set on male rat, under 25 mg/kg; with mouse [15], 2 mg/kg. Also, the “Traction, 50% effective dose” value with mice [1] (mouse, PO, listed as Ca 2053) amounted to 1.25 mg/kg. The “Equilibration, 50% effective dose” value in the data set with mice [2] (mouse, PO, listed as Ca 2053) came out at 9.6 mg/kg. In the data set on mice [4] (mouse, PO, listed as Ca 2053), the “Electric shock, 50% effective dose” value is 3 mg/kg. Also, the “Exploration, 50% effective dose” value with mice [5] (mouse, PO, listed as Ca 2053) is 6.25 mg/kg. Moreover, the “Spontaneous motor activity, 50% effective dose” value in the data set with rat [6] (PO, listed as Ca 2053) is 25 mg/kg; in the data set on mouse [7] (PO, listed as Ca 2053), 10 mg/kg. The “Reaction / pH of aqueous solution” value in data set [14] is reported as “strongly alkaline in reaction”. For the same compound, the “Activity compared with diazepame” value in the data set on central nervous system (most of the tests) is “highly active and in most of the tests, it is at least equal and frequently superior to diazepame”. For the same compound, the “Pharmacodynamic comparison of products obtained by the two methods” value in the data set with central nervous system (saponification of benzodiazepine ester or of imine diester) is on record as “pharmacodynamic studies confirm the identity of the products obtained by the two methods”. Further, the Solubility in water result in “Solubility” is on record as “completely soluble in water”.
